Data on 50 molecules can be found in patent publication US20250042889A1, “3CLPRO PROTEASE INHIBITOR” (SHANGHAI QILU PHARMACEUTICAL RESEARCH AND DEVELOPMENT …, priority 2021, published 2025).

SMILES strings stand for the structures.

This experiment deals with SARS-COV-2 3CLpro/Mpro protease (Severe acute respiratory syndrome coronavirus 2 (2019-nCoV) (SARS-CoV-2), UniProt P0DTD1). Description: Inhibitory effect on SARS-COV-2 3CLpro/Mpro protease by fluorescence resonance energy transfer. Type of experiment: biochemical. The settings on record: activity intervals A-D, read-out: IC50 (nM), Inhibition on SARS-CoV-2 3CLpro/Mpro protease.
For `CNc1cncc(C(=O)N2CCC[C@@H](Nc3c(C(=O)N4CC(O)CC(F)(F)C4)cc(Br)cc3[N+](=O)[O-])C2)c1` (some centres unmarked) [Example 303], the IC50 fell in the range of 10 to 50 nM.

For the molecule `CNC(=O)[C@@H]1C[C@@H](Nc2c(C(=O)N3C[C@@H](C)O[C@@H](C)C3)cc(Br)cc2[N+](=O)[O-])CN1C(=O)c1cncc(NC)c1` [Example 366], the IC50 lay within 10 to 50 nM. As to `O=C(c1cc(Br)cc([N+](=O)[O-])c1N[C@@H]1CCCN(C(=O)c2cncc3ccccc23)C1)N1CCCC1` [Example 39], the IC50 is below 10 nM. Next, `CNc1cncc(C(=O)N2CCC[C@@H](Nc3c(C(=O)N4CCC[C@H](C)C4)cc(Br)cc3[N+](=O)[O-])C2)c1` [Example 256]: 10 to 50 nM; `O=C(N[C@H]1CCCC[C@H]1Nc1c(C(=O)N2CCCCC2)cc(Br)cc1[N+](=O)[O-])c1cncc2ccccc12` [Example 2, N-((1S,2R)-2-((4-bromo-2-nitro-6-(piperidin-1-carbonyl)phenyl)amino)cyclohexyl) isoquinolin-4-formamide]: below 10 nM. Next, `CNc1cncc(C(=O)N2C[C@H](Nc3c(C(=O)N4C[C@@H](C)O[C@@H](C)C4)cc(Br)cc3[N+](=O)[O-])C[C@H]2C(=O)Nc2ccc(C(F)(F)F)nc2)c1` [Example 416]: 100 to 200 nM. Next, `CNc1cncc(C(=O)N2C[C@H](Nc3c(C(=O)N4C[C@@H](C)O[C@@H](C)C4)cc(Br)cc3[N+](=O)[O-])C(F)(F)C2)c1` [Example 182]: 10 to 50 nM; `O=C(c1cc(Br)cc([N+](=O)[O-])c1N[C@@H]1CCN(C(=O)c2cncc3ccccc23)C1)N1CCCCC1` [Example 12, (R)-(5-bromo-2-((1-(isoquinolin-4-carbonyl)pyrrolidin-3-yl)amino)-3-nitrophenyl)(piperidin-1-yl)methanone]: 10 to 50 nM. `CNc1cncc(C(=O)N2C[C@H](Nc3c(C(=O)N4C[C@@H](C)O[C@@H](C)C4)cc(Br)cc3[N+](=O)[O-])C[C@H]2C(=O)NCc2ccnc(F)c2)c1` [Example 426]: the IC50 lay within 100 to 200 nM.

For `CNc1cncc(C(=O)N[C@H]2CCCC[C@H]2Nc2c(C(=O)N3C[C@H](C)O[C@@H](C)C3)cc(Br)cc2[N+](=O)[O-])c1` [Example 217], the IC50 lay in the range of 50 to 100 nM. Next, `CNc1cncc(C(=O)N2CCC[C@@H](Nc3c(C(=O)N4CCC(C)(C)CC4)cc(Br)cc3[N+](=O)[O-])C2)c1` [Example 252]: 10 to 50 nM. With `O=C(c1cc(Br)cc([N+](=O)[O-])c1N[C@@H]1CCCN(C(=O)c2cncc3ccccc23)C1)N1CCNCC1` [Example 10], the IC50 was 10 to 50 nM. On to `COCCN1CCN(C(=O)c2cc(Br)cc([N+](=O)[O-])c2N[C@@H]2COCC[C@@H]2NC(=O)c2cncc3cc(Cl)ccc23)CC1` [Example 215], for which the IC50 was 10 to 50 nM. For the molecule `O=C(c1cc(Br)cc([N+](=O)[O-])c1N[C@@H]1CCCN(C(=O)c2cc(=O)[nH]c3cc(Cl)ccc23)C1)N1CCCCC1` [Example 128], the IC50 lay within 10 to 50 nM. In the case of `O=C(c1cncc(Br)c1)N1CC[C@@H](Nc2c(C(=O)N3CCCCC3)cc(Br)cc2C(F)(F)F)C1` [Example 68] it was 50 to 100 nM; in that of `CNc1cncc(C(=O)N2CCC[C@@H](Nc3c(C(=O)N4CC=CCC4)cc(Br)cc3[N+](=O)[O-])C2)c1` [Example 336, (R)-(5-Bromo-2-((1-(5-(methylamino)nicotinoyl)piperidin-3-yl)amino)-3-nitrophenyl)(3,6-dihydropyridin-1 (2H)-yl) methanone], 10 to 50 nM. `CNc1cncc(C(=O)N2C[C@H](Nc3c(C(=O)N4C[C@@H](C)O[C@@H](C)C4)cc(Br)cc3[N+](=O)[O-])C[C@H]2C(=O)N2CC(F)(F)C2)c1` [Example 382]: the IC50 fell in the range of 50 to 100 nM.

As to `CNc1cncc(C(=O)N2CCC[C@@H](Nc3c(C(=O)N4CCOC[C@H]4C)cc(Br)cc3[N+](=O)[O-])C2)c1` [Example 355], the IC50 was in the range of 10 to 50 nM. Next, `CNc1ccc2c(C(=O)N3CCC[C@@H](Nc4c(C(=O)N5C[C@@H](C)O[C@@H](C)C5)cc(Br)cc4[N+](=O)[O-])C3)cc(=O)[nH]c2c1` [Example 343]: 10 to 50 nM; `CNc1cncc(C(=O)N2C[C@H](Nc3c(C(=O)N4C[C@@H](C)O[C@@H](C)C4)cc(Br)cc3[N+](=O)[O-])C[C@H]2C(=O)NCc2ccccc2)c1` [Example 390]: 10 to 50 nM; `CC(C)(C)C1CCN(C(=O)c2cc(Br)cc([N+](=O)[O-])c2N[C@@H]2CCCN(C(=O)[C@@H]3CCNC(=O)C3)C2)CC1` [Example 163]: 10 to 50 nM.

With `O=C1C[C@H](C(=O)N2CCC[C@@H](Nc3c(C(=O)N4CCCCC4)cc(Br)cc3[N+](=O)[O-])C2)c2ccccc2N1` [Example 264], the IC50 was 10 to 50 nM.

In the case of `CNc1cncc(C(=O)N2C[C@H](Nc3c(C(=O)N4CCCCC4)cc(Br)cc3[N+](=O)[O-])C3(CC3)C2)c1` [Example 82], the IC50 was 10 to 50 nM. In the case of `C[C@H]1CN(C(=O)c2cc(Br)cc([N+](=O)[O-])c2N[C@@H]2CCCN(C(=O)c3cc(=O)[nH]c4ccccc34)C2)CCO1` [Example 130] it was 10 to 50 nM; in that of `C[C@@H]1C[C@H](C)CN(C(=O)c2cc(Br)cc([N+](=O)[O-])c2N[C@@H]2CCCN(C(=O)c3cncc(Br)c3)C2)C1` [Example 72], below 10 nM. Take `CNc1cncc(C(=O)N2CCC[C@@H](Nc3c(C(=O)N4CCC(N5CCOCC5)CC4)cc(Br)cc3[N+](=O)[O-])C2)c1` [Example 19, (R)-(5-bromo-2-((1-(5-(methylamino)nicotinoyl)piperidin-3-yl)amino)-3-nitrophenyl)(4-morpholinopiperidin-1-yl)methanone]: the IC50 fell in the range of 10 to 50 nM. In the case of `CNc1cncc(C(=O)N2CCC[C@@H](Nc3c(C(=O)N4C[C@@H](C)O[C@@H](C(F)(F)F)C4)cc(Br)cc3[N+](=O)[O-])C2)c1` [Example 349] it was 10 to 50 nM. In the case of `O=C(c1cncc(Br)c1)N1CC(Nc2c(C(=O)N3CCC(F)(F)CC3)cc(Br)cc2[N+](=O)[O-])C(F)(F)C1` (centres unmarked) [Example 104] it was 10 to 50 nM.

Regarding `Cc1cc(C(=O)N2C[C@H](Nc3c(C(=O)N4CCC5(CCC5)CC4)cc(Br)cc3[N+](=O)[O-])C3(CC3)C2)cc(=O)[nH]1` [Example 95], the IC50 fell in the range of 10 to 50 nM.

Consider `O=C(c1cc(Br)cc([N+](=O)[O-])c1N[C@@H]1CCCN(C(=O)[C@H]2CNCC(F)(F)C2)C1)N1CC2CCC(C1)O2` [Example 332], for which the IC50 is 10 to 50 nM. Next, `C[C@@H]1CN(C(=O)c2cc(Br)cc([N+](=O)[O-])c2N[C@@H]2CCN(C(=O)c3cncc(Br)c3)C2)C[C@H](C)O1` [Example 76]: below 10 nM.

As for `O=C(N[C@H]1CCCC[C@H]1Nc1c(C(=O)N2CCC(N3CCOCC3)CC2)cc(Br)cc1[N+](=O)[O-])c1cc(=O)[nH]c2ccccc12` [Example 136], the IC50 was below 10 nM. For `O=C1C[C@H](C(=O)N2CCC[C@@H](Nc3c(C(=O)N4CCC5(CCCCC5)CC4)cc(Br)cc3[N+](=O)[O-])C2)CCN1` [Example 158], the IC50 fell in the range of 10 to 50 nM. Regarding `CO[C@H]1CN(C(=O)c2cncc3[nH]cnc23)C[C@@H]1Nc1c(C(=O)N2C[C@@H](C)O[C@@H](C)C2)cc(Br)cc1[N+](=O)[O-]` [Example 408], the IC50 fell in the range of 10 to 50 nM. In the case of `CNc1cncc(C(=O)N2C[C@H](Nc3c(C(=O)N4C[C@@H](C)O[C@@H](C)C4)cc(Br)cc3[N+](=O)[O-])CC2C(=O)NCC(F)(F)F)c1` (some centres unmarked) [Example 380] it was 10 to 50 nM.

Take `CNc1cncc(C(=O)N2CCC[C@@H](Nc3c(C(=O)N4CCC5(CCOCC5)CC4)cc(Br)cc3[N+](=O)[O-])C2)c1` [Example 250]: the IC50 fell in the range of 10 to 50 nM. Next, `CNc1cncc(C(=O)N2CCC[C@@H](Nc3c(C(=O)N4C[C@H](C)O[C@@H](C(F)(F)F)C4)cc(Br)cc3[N+](=O)[O-])C2)c1` [Example 350]: 50 to 100 nM; `CNc1cncc(C(=O)NC[C@@H](COC)Nc2c(C(=O)N3CCCCC3)cc(Br)cc2[N+](=O)[O-])c1` [Example 301]: 50 to 100 nM; `NC(=O)c1cncc(C(=O)N2CCC[C@@H](Nc3c(C(=O)N4CCCCC4)cc(Br)cc3[N+](=O)[O-])C2)c1` [Example 302]: 100 to 200 nM. Next, `COCCN1CCN(C(=O)c2cc(Br)cc([N+](=O)[O-])c2N[C@@H]2CCCN(C(=O)[C@H]3CNCC(F)(F)C3)C2)CC1` [Example 361]: 10 to 50 nM; `CNc1cncc(C(=O)N2C[C@H](Nc3c(C(=O)N4CCC(F)(F)CC4)cc(Br)cc3[N+](=O)[O-])[C@@H](OC)C2)c1` [Example 372]: 10 to 50 nM; `Cc1cc(C(=O)N2C[C@H](Nc3c(C(=O)NCC(F)(F)F)cc(Br)cc3[N+](=O)[O-])C3(CC3)C2)cc(=O)[nH]1` [Example 89]: 10 to 50 nM. As to `CNc1cncc(C(=O)N2CCC[C@@H](Nc3c(C(=O)N4CCN(C5CCOCC5)CC4)cc(Br)cc3[N+](=O)[O-])C2)c1` [Example 235], the IC50 lay in the range of 10 to 50 nM. `C[C@@H]1CN(C(=O)c2cc(Br)cc([N+](=O)[O-])c2N[C@@H]2CCCN(C(=O)c3cncc4[nH]cnc34)C2)C[C@H](C)O1` [Example 151]: the IC50 was in the range of 10 to 50 nM. In the case of `O=C(c1cc(Br)cc([N+](=O)[O-])c1N[C@@H]1CCN(C(=O)c2cncc3cc(Cl)ccc23)C1)N1CC2CC2C1` (some centres unmarked) [Example 51], the IC50 fell in the range of 10 to 50 nM. For `CNc1cncc(C(=O)N2C[C@H](Nc3c(C(=O)N4C[C@@H](C)O[C@@H](C)C4)cc(Br)cc3[N+](=O)[O-])C[C@H]2c2nnco2)c1` [Example 396], the IC50 lay within 50 to 100 nM. On to `Cc1cncc(C(=O)N2CCC[C@@H](Nc3c(C(=O)N4CCCCC4)cc(Br)cc3[N+](=O)[O-])C2)c1` [Example 43], for which the IC50 was in the range of 10 to 50 nM. Consider `CNc1cncc(C(=O)N2C[C@H](Nc3c(C(=O)N4C[C@@H](C)O[C@@H](C)C4)cc(Br)cc3[N+](=O)[O-])[C@@H](OCCOC)C2)c1` [Example 405], for which the IC50 lay in the range of 10 to 50 nM. Next, `CNc1cncc(C(=O)N2CC(Nc3c(C(=O)N4CCN(CC(F)(F)F)CC4)cc(Br)cc3[N+](=O)[O-])C(F)(F)C2)c1` (centres unmarked) [Example 98]: 10 to 50 nM. As to `CNc1cncc(C(=O)N2CCC[C@@H](Nc3c(C(=O)N4CCO[C@@H](C)C4)cc(Br)cc3[N+](=O)[O-])C2)c1` [Example 219], the IC50 is 10 to 50 nM.
